The target in assay [1] is T1, Alpha-2C adrenergic receptor (Homo sapiens, UniProt P18825).
T1 sequence (P18825 whole entry): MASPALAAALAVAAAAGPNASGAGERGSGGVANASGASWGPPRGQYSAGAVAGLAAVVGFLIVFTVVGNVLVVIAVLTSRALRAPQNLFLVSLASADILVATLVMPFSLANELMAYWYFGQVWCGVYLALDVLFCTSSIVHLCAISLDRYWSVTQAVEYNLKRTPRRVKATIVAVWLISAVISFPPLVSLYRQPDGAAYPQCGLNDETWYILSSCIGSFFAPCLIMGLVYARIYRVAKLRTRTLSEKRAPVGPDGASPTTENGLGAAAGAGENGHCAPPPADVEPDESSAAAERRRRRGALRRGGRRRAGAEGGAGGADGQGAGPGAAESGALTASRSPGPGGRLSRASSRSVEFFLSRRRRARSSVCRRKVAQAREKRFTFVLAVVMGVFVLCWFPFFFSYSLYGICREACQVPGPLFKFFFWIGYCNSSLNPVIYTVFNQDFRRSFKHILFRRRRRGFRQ
The experiment in a line: Inhibition of adrenergic alpha2C receptor (unknown origin) by PDSP assay.

In assay [2] the target is Sodium-dependent dopamine transporter (Homo sapiens, UniProt Q01959). The experiment in a line: Displacement of [3H]-WIN-35,428 from human DAT expressed in HEK cell membranes at 10 uM relative to control. The settings on record: HEK293.
In a further assay the target is Histamine H1 receptor (Homo sapiens, UniProt P35367). In words: Inhibition of histamine H1 receptor (unknown origin) by PDSP assay.
Assay [3] has as its target Muscarinic acetylcholine receptor M3 (Homo sapiens, UniProt P20309). The experiment in a line: Inhibition of muscarinic M3 receptor (unknown origin) at 10 uM by PDSP assay relative to control.
Assay [4] addresses T2, Alpha-2B adrenergic receptor (Homo sapiens, UniProt P18089).
T2 sequence (P18089 whole entry): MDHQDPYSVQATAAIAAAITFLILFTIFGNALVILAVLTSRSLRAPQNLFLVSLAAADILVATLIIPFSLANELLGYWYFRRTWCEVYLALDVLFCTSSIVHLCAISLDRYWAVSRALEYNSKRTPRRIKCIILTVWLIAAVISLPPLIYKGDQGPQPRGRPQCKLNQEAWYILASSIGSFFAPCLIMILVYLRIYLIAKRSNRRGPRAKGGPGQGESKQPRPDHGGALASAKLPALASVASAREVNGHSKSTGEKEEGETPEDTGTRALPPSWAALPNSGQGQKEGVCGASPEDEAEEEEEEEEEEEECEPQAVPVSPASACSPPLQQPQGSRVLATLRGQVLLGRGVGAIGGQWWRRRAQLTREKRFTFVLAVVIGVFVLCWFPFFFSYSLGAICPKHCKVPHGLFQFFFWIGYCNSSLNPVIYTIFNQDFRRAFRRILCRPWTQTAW
In words: Inhibition of adrenergic alpha2B receptor (unknown origin) by PDSP assay.

Assay [5] has as its target T3, Muscarinic acetylcholine receptor M1 (Homo sapiens) (UniProt P11229).
T3 sequence (whole entry): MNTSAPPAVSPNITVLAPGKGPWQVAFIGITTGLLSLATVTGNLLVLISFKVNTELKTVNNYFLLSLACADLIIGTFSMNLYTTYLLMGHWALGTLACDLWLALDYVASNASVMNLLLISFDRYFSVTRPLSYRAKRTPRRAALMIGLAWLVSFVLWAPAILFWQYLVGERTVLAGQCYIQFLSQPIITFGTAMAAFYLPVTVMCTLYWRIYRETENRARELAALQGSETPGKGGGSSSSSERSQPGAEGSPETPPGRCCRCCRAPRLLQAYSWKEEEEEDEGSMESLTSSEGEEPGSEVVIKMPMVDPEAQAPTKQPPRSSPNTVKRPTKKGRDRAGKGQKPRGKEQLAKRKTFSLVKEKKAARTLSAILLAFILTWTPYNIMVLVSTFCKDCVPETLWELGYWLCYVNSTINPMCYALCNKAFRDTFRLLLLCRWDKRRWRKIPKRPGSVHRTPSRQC
The experiment in a line: Inhibition of muscarinic M1 receptor (unknown origin) at 10 uM by PDSP assay relative to control.

A further assay addresses D(1B) dopamine receptor (Homo sapiens, UniProt P21918). In words: Inhibition of dopamine D5 receptor (unknown origin) by PDSP assay.
Assay [6] concerns the target T4, Muscarinic acetylcholine receptor M2 (Homo sapiens) (UniProt P08172).
T4 sequence (whole entry): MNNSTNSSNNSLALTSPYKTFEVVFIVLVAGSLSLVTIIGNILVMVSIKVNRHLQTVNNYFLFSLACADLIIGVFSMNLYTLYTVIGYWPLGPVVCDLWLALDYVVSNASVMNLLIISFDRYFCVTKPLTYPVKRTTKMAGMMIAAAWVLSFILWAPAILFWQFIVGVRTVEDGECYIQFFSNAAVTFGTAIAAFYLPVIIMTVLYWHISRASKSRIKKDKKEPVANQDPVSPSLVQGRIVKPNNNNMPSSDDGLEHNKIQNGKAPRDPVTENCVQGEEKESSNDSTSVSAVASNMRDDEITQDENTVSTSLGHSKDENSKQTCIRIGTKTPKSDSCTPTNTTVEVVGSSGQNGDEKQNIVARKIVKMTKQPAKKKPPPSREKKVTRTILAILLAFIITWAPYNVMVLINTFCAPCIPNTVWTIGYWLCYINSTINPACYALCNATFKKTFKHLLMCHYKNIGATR
In words: Inhibition of muscarinic M2 receptor (unknown origin) at 10 uM by PDSP assay relative to control.

The target in assay [7] is 5-hydroxytryptamine receptor 2A (Homo sapiens, UniProt P28223). In words: Inhibition of 5-HT2A receptor (unknown origin) at 10 uM by PDSP assay relative to control.
Chain of 5-hydroxytryptamine receptor 2A (P28223 whole entry): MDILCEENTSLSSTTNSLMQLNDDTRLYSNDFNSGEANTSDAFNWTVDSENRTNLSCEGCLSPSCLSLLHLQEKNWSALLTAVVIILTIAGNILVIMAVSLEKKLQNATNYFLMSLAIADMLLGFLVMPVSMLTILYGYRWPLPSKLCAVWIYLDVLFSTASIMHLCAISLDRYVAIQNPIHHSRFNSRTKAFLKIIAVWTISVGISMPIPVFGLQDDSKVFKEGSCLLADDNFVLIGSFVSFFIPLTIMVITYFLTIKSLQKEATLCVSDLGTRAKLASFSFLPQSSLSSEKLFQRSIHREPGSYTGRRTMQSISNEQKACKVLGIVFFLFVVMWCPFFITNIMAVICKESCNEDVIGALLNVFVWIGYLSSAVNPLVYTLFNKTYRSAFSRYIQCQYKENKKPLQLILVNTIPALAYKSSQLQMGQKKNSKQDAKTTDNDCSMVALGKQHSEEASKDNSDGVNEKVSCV

Chain of Histamine H1 receptor (P35367 whole entry): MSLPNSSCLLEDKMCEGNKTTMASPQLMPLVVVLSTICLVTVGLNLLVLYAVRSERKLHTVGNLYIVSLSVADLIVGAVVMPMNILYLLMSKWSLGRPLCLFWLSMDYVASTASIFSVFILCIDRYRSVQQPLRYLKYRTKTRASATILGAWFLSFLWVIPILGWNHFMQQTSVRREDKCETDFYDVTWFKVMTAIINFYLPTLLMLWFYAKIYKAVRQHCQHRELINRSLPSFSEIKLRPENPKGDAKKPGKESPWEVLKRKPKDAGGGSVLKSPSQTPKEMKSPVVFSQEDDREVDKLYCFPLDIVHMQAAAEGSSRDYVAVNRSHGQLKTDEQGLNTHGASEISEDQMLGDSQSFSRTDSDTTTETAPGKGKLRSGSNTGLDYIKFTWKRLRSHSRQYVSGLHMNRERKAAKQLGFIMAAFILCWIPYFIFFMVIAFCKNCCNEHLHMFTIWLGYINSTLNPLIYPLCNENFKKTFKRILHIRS
Chain of Sodium-dependent dopamine transporter (Q01959 whole entry): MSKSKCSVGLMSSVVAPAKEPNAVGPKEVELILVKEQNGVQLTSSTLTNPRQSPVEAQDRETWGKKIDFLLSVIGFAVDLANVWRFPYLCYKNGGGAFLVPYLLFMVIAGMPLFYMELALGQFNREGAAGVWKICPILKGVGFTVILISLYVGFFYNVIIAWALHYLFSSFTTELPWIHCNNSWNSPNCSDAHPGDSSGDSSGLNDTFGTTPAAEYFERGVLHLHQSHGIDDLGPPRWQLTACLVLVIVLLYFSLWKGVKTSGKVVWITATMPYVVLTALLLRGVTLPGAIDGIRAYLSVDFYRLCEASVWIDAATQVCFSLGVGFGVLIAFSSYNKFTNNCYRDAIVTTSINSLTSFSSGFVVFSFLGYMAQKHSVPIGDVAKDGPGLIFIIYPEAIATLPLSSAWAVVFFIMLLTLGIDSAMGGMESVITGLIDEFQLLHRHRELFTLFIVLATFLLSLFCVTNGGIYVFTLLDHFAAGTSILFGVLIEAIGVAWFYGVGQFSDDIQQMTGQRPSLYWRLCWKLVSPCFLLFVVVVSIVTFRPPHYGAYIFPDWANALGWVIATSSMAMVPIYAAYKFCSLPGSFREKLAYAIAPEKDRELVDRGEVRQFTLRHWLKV
Chain of D(1B) dopamine receptor (P21918 whole entry): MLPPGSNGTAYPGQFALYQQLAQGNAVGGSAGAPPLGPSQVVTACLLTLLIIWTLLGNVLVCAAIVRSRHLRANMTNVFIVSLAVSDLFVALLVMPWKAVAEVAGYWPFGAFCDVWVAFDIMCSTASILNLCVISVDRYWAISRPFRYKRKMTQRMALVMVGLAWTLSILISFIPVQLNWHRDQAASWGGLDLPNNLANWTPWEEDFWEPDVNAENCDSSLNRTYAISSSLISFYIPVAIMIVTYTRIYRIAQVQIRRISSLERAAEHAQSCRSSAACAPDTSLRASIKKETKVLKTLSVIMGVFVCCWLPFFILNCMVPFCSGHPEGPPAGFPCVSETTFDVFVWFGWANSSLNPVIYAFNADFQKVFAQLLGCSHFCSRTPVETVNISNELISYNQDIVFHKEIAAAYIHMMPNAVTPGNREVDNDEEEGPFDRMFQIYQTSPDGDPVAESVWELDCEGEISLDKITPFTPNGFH
Chain of Muscarinic acetylcholine receptor M3 (P20309 whole entry, looked up): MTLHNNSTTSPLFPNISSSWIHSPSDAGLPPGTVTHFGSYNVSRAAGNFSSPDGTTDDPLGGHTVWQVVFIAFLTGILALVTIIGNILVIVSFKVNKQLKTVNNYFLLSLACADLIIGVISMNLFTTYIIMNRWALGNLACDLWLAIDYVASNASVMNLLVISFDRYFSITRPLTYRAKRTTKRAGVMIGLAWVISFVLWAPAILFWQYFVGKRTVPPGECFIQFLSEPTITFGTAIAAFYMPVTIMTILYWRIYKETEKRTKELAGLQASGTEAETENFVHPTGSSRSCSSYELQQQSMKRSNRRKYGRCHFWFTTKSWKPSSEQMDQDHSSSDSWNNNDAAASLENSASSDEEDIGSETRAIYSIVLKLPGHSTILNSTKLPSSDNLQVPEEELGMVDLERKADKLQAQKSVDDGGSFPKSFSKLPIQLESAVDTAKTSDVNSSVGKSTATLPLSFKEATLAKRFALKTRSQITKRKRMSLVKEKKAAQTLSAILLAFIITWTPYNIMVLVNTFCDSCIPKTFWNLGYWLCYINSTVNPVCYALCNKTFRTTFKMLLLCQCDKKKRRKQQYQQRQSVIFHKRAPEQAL

Usually Ki stands for the dissociation constant of the complex between target and ligand, obtained from inhibition or displacement. Read a high Ki as lower affinity. In general, inhibition refers to the relative decrease from the control value, in per cent. Consider `COc1cc(CN[C@H]2C3C4CC5C6C4CC3C6C52)cc(OC)c1OC` (stereo not given in full), for which the Ki in assay [1] was 2280 nM; on Histamine H1 receptor it was 5.57 µM; in assay [4], 665 nM; at D(1B) dopamine receptor, greater than 10 µM. The inhibition in [2], in assay [3], in assay [5] and in assay [6] was less than 50% each time.

For the compound `c1cc2c(cc1CN[C@H]1C3C4CC5C6C4CC3C6C51)OCO2` (stereo not given in full), the Ki in [1] was 3080 nM; at Histamine H1 receptor, 4.18 µM; in [4], 3260 nM; on D(1B) dopamine receptor it was greater than 10 µM. The inhibition in [2], in [3], in assay [7] and in assay [5] was less than 50% in each case.

As for `C1C2C3CC4C2C2C1C3[C@H](NCC13C5C6C7C5C1C7C63)C42` (stereo not given in full), the Ki in assay [1] worked out at 683 nM; on Histamine H1 receptor, 4.74 µM; in assay [4] it was 1010 nM. Also, in assay [7], the inhibition was less than 50%.
